The results in this text go back to ChEMBL document CHEMBL5226325, “Optimization of a Screening Hit toward M2912, an Oral Tankyrase Inhibitor with Antitumor Activity in Colorectal Cancer Models” (J Med Chem, 2021).

The target of experiment [1] is T1, Poly [ADP-ribose] polymerase tankyrase-1 (Homo sapiens, UniProt O95271).
T1 sequence (O95271 whole entry): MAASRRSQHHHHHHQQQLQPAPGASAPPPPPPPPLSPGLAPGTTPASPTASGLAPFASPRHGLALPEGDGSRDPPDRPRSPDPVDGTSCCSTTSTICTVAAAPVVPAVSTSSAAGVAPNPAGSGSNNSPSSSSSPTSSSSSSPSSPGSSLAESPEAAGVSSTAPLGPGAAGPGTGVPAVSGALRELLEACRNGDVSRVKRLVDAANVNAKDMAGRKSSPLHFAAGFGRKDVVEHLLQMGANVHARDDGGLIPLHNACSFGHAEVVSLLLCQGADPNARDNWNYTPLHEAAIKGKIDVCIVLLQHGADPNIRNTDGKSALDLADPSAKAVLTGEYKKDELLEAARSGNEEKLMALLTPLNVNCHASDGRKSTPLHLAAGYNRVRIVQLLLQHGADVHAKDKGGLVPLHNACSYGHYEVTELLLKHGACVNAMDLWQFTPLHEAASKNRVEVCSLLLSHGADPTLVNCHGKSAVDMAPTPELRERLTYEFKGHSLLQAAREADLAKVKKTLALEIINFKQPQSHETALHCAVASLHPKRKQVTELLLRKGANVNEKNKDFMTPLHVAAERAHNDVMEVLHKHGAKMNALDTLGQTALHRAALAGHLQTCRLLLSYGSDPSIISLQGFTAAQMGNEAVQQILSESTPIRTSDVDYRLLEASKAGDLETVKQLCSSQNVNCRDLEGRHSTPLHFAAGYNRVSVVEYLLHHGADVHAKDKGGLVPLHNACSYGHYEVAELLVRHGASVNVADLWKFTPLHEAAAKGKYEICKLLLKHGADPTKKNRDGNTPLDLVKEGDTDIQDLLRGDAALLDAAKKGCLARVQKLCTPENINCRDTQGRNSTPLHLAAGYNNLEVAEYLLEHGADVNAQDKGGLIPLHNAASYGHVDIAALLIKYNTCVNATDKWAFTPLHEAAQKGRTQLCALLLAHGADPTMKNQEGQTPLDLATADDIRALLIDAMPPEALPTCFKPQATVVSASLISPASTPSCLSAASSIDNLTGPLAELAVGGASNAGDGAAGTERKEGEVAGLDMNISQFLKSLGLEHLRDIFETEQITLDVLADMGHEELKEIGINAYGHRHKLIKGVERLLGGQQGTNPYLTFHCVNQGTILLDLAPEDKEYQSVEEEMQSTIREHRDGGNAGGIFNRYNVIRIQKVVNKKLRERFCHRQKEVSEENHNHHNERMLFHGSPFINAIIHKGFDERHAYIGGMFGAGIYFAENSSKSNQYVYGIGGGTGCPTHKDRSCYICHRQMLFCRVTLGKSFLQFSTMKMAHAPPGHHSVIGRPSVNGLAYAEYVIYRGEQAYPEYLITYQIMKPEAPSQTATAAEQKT
Kind of experiment: Inhibition of TNKS1 (unknown origin) using biotinylated NAD as substrate assessed as inhibition of autoPARsylation activity incubated for 1 hr by ELISA.

A short description of experiment [2]: Modulation of Wnt/beta-catenin signaling pathway in human DLD-1 cells assessed as induction of AXIN2 accumulation incubated for 24 hrs by ELISA. Conditions: DLD-1, 24 h. The class given is cell-based.
Experiment [3] addresses T2, Poly [ADP-ribose] polymerase tankyrase-2 (Homo sapiens, UniProt Q9H2K2).
T2 sequence (Q9H2K2 whole entry): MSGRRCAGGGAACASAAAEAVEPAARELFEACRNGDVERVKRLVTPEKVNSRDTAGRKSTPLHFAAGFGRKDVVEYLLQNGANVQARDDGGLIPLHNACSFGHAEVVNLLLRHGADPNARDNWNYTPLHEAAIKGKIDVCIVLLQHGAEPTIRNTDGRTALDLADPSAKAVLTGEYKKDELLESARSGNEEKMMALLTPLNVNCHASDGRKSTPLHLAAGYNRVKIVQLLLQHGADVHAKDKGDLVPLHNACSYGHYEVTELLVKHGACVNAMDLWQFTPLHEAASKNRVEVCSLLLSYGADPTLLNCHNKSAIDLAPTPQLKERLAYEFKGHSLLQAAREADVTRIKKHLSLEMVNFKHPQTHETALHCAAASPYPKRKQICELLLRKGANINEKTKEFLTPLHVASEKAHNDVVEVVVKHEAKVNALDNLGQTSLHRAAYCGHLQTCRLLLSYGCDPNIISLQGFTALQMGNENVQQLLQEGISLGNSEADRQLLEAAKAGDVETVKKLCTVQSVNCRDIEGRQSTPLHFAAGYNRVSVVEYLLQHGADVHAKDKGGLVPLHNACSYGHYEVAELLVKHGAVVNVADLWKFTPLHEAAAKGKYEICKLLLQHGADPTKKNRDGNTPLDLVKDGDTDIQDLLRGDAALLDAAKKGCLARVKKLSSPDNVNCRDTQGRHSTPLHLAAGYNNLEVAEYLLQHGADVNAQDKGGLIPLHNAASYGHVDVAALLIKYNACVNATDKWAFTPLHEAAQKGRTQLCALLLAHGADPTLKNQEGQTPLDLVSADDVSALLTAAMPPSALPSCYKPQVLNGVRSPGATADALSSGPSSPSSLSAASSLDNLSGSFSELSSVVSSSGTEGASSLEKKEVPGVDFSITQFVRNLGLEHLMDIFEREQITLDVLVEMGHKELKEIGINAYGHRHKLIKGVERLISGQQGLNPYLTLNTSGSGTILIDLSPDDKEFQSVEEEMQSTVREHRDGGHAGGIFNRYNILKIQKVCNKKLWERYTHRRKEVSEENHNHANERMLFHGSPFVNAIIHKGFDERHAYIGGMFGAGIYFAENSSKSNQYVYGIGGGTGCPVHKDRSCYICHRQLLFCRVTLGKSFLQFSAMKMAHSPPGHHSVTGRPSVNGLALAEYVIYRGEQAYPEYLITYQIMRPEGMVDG
Briefly: Inhibition of TNKS2 (unknown origin) using biotinylated NAD as substrate assessed as inhibition of autoPARsylation activity incubated for 1 hr by ELISA.

The target of experiment [4] is Poly [ADP-ribose] polymerase 1 (Homo sapiens, UniProt P09874). Kind of experiment: Inhibition of PARP-1 (unknown origin) using biotinylated NAD and NAD as substrate assessed as inhibition of auto-PARsylation incubated for 150 mins by TR-FRET assay.
Experiment [5] deals with T1, Poly [ADP-ribose] polymerase tankyrase-1. Kind of experiment: Binding affinity to recombinant human TNKS1 (1091 to 1327 residues) assessed as dissociation constant by ITC method.
Experiment [6] has the same target. Kind of experiment: Inhibition of TNKS1 (unknown origin) using biotinylated NAD as substrate assessed as inhibition of autoPARsylation activity incubated for 90 mins by TR-FRET analysis.

Poly [ADP-ribose] polymerase 1, sequence (P09874 whole entry, the tested form may be a part): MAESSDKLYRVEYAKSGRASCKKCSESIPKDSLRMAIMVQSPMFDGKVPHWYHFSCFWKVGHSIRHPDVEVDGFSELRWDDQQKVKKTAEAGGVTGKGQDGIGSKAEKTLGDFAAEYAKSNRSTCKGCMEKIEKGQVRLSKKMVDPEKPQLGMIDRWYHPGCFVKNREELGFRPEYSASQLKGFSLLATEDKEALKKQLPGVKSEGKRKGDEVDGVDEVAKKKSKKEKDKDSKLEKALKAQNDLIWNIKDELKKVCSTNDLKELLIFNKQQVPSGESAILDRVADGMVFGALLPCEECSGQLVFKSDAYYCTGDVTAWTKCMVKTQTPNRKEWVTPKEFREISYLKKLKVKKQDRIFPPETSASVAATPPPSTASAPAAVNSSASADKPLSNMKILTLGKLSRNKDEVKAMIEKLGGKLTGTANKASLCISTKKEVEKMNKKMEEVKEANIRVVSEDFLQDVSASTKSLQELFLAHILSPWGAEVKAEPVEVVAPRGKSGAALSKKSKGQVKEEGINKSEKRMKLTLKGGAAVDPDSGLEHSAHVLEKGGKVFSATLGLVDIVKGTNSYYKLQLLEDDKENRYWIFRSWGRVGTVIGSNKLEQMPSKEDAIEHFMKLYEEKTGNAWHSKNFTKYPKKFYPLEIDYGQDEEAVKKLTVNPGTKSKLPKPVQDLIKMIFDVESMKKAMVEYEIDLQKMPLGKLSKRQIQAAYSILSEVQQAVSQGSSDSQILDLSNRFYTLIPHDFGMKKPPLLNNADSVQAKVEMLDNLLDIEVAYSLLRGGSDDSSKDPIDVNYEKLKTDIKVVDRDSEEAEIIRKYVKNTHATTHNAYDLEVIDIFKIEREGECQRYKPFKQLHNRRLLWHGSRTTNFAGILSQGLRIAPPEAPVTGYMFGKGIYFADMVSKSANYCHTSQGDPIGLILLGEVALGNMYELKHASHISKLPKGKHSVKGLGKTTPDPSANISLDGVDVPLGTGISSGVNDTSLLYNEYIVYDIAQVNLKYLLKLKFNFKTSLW

Turning to `Cc1ncc2c(=O)[nH]c(-c3ccc(C(C)(C)O)cc3)cn12`, the IC50 in experiment [1] was determined as 12 nM; in experiment [3] it was 14 nM; in experiment [4], 23000 nM. Also, the EC50 in experiment [2] was 749 nM.

For `Cc1ccc2c(=O)[nH]c(-c3ccc([C@@](C)(O)CCO)cc3)cn12`, the half-inhibitory concentration (IC50) turned out to be 2.1 nM in experiment [1], 1.6 nM in experiment [3] and 340 nM in experiment [4]. The EC50 in experiment [2] is 16 nM.

Turning to `CC(C)(O)c1ccc(-c2cn3c(F)c(F)cc3c(=O)[nH]2)cc1`, the 50% inhibitory concentration (IC50) amounted to 1.2 nM in experiment [1], 3.5 nM in experiment [3] and 1300 nM in experiment [4]. Also, the EC50 in experiment [2] was determined as 159 nM.

Consider `Cc1ccc2c(=O)[nH]c(-c3ccc(C(C)(C)O)cc3)nn12`, for which the IC50 in experiment [1] came out at 0.8 nM; in experiment [3] it was 0.9 nM; in experiment [4], 950 nM. Besides, the 50% effective concentration (EC50) in experiment [2] turned out to be 28 nM.

As to `Cc1csc2c(=O)[nH]c(-c3ccc(C(C)(C)O)cc3)nc12`, the 50% inhibitory concentration (IC50) in experiment [1] was found to be 2 nM; in experiment [3] it was 1.5 nM; in experiment [4], 440 nM. Moreover, the EC50 in experiment [2] worked out at 96 nM.

Turning to `Cc1cc2c(=O)[nH]c(-c3ccc(C(C)(C)O)cc3)cn2n1`, the results for the half-inhibitory concentration (IC50) in experiment [1], in experiment [3] and in experiment [4] were 13 nM, 36 nM and 3700 nM, respectively. In addition, in experiment [2], the EC50 was 510 nM.

With `CC(C)(C)c1ccc(-c2cn3ccnc3c(=O)[nH]2)cc1`, the IC50 in experiment [1] was 21 nM. For the same compound, in experiment [2], the concentration giving a half-maximal response (EC50) was 1430 nM.

On to `Cc1ccc2c(=O)[nH]c(-c3ccc(C4(O)CC4)cc3)cn12`, for which the figures for the IC50 in experiment [1], in experiment [3] and in experiment [4] were 1 nM, 1 nM and 330 nM, respectively. For the same compound, the EC50 in experiment [2] is 49 nM.

With `CC(C)(C)c1ccc(-c2cn3cncc3c(=O)[nH]2)cc1`, the figures for the IC50 in experiment [1] and in experiment [3] were 27 nM and 35 nM, respectively. Further, the EC50 in experiment [2] was 635 nM.

Consider `Cc1ccc2c(=O)[nH]c(-c3ccc(C(C)(C)OCCO)cc3)cn12`, for which the figures for the half-maximal inhibitory concentration (IC50) in experiment [1], in experiment [3] and in experiment [4] were 2.3 nM, 1.5 nM and 693 nM, respectively. Further, in experiment [2], the EC50 turned out to be 20 nM.

As for `CC(C)(O)c1ccc(-c2cn3c(F)ccc3c(=O)[nH]2)cc1`, the 50% inhibitory concentration (IC50) was found to be 3.4 nM in experiment [1], 6.1 nM in experiment [3] and 2000 nM in experiment [4]. Further, the concentration for a half-maximal effect (EC50) in experiment [2] was 113 nM. Moreover, in experiment [5], the Kd turned out to be 6 nM.

For `Cc1ccc2c(=O)[nH]c(-c3ccc([C@@](C)(O)CO)cc3)cn12`, the IC50 in experiment [1] worked out at 1.9 nM; in experiment [3] it was 1.7 nM; in experiment [4] it was 748 nM. Moreover, the EC50 in experiment [2] was determined as 93 nM.

As for `Cc1ccc2c(=O)[nH]c(-c3ccc([C@](C)(O)CO)cc3)cn12`, the figures for the IC50 in experiment [1], in experiment [3] and in experiment [4] were 2.6 nM, 2 nM and 604 nM, respectively. Besides, in experiment [2], the EC50 is 82 nM.

For `CC(C)(O)c1ccc(-c2cn3cc(Cl)cc3c(=O)[nH]2)cc1`, the figures for the IC50 in experiment [1], in experiment [3] and in experiment [4] were 2.5 nM, 9.4 nM and 630 nM, respectively. The EC50 in experiment [2] was 118 nM.

Take `CC(C)(O)c1ccc(-c2cn3c(CO)ccc3c(=O)[nH]2)cc1`: the 50% inhibitory concentration (IC50) is 9.8 nM in experiment [1], 8.2 nM in experiment [3] and 4200 nM in experiment [4]. Moreover, the concentration for a half-maximal effect (EC50) in experiment [2] came to 580 nM.

For `Cc1ccc2c(=O)[nH]c(-c3ccc(C4(O)COC4)cc3)cn12`, the results for the half-inhibitory concentration (IC50) in experiment [1], in experiment [3] and in experiment [4] were 2.5 nM, 1.8 nM and 350 nM, respectively. The concentration for a half-maximal effect (EC50) in experiment [2] came to 28 nM.

With `Cc1cc2c(=O)[nH]c(-c3ccc(C(C)(C)O)cc3)cn2c1`, the values for the IC50 in experiment [1], in experiment [3] and in experiment [4] were 2.3 nM, 7.9 nM and 1900 nM, respectively. Moreover, the concentration for a half-maximal effect (EC50) in experiment [2] was 230 nM.

For `Cc1ccc(-c2cn3ccnc3c(=O)[nH]2)cc1`, the half-inhibitory concentration (IC50) in experiment [6] was 1500 nM.

In the case of `CC(C)(O)c1ccc(-c2cn3cc(F)cc3c(=O)[nH]2)cc1`, the IC50 was found to be 1.9 nM in experiment [1], 2.9 nM in experiment [3] and 450 nM in experiment [4]. In addition, in experiment [2], the concentration for a half-maximal effect (EC50) was determined as 147 nM.

For the compound `Cc1ncc2c(=O)[nH]c(-c3ccc(C(C)(C)C)cc3)cn12`, the half-inhibitory concentration (IC50) in experiment [1] came to 2.9 nM; in experiment [3], 3.8 nM; in experiment [4], 28000 nM. In addition, the EC50 in experiment [2] was found to be 210 nM.

For `Cc1cc2c(=O)[nH]c(-c3ccc(C(C)(C)O)cc3)nn2n1`, the IC50 in experiment [1] came to 570 nM; in experiment [3], 2600 nM. In addition, the EC50 in experiment [2] stood at 12000 nM.

As to `CC(C)(O)c1ccc(-c2cn3cccc3c(=O)[nH]2)cc1`, the values for the IC50 in experiment [1], in experiment [3] and in experiment [4] were 2.7 nM, 5.5 nM and 920 nM, respectively. In addition, in experiment [2], the half-maximal effective concentration (EC50) was 120 nM. In experiment [5], the Kd came to 6 nM.

Regarding `Cc1ccc2c(=O)[nH]c(-c3ccc([C@](C)(O)CCO)cc3)cn12`, the figures for the half-inhibitory concentration (IC50) in experiment [1], in experiment [3] and in experiment [4] were 0.8 nM, 1 nM and 770 nM, respectively. The EC50 in experiment [2] is 18 nM.
